Earlier results, collected in US8278451B2, “Pseudoazulenyl nitrones” (The Florida International University Board of Trustees, priority 2006, dated 2012).

Columns and labels:
[1] = system: LPS-induced organ dysfunction and cytokine secretion; conditions: rats, LPS administered
[2] = system: age-related changes in cognitive performance; conditions: aged rats, chronic treatment
lifespan = conditions: aged animal model, daily intraperitoneal injection, male and female
[3] = system: human diploid fibroblast cells; conditions: human diploid fibroblast cells in culture
[4] = aqueous solution at pH 7 and 20° C.

Structure (SMILES) | LPS-induced leukopenia [1] | LPS-induced pulmonary edema [1] | LPS-induced thrombocytopenia [1] | organ dysfunction and cytokine secretion induced by LPS [1] | age-related changes in cognitive performance [2] | lifespan (lifespan) | onset of senescence [3] | one-electron oxidative potential (vs. NHE) [4] [V]
CC1(C)Cc2ccccc2C=[N+]1[O-] [MDL 101,002] | failed to prevent leukopenia | prevented pulmonary edema | partially reduced thrombocytopenia | reduces organ dysfunction and cytokine secretion | – | – | – | –
CC(C)(C)[N+]([O-])=Cc1ccccc1 [PBN, alpha-phenyl-N-tert-butylnitrone] | – | – | – | – | benefit (i.e., improve) age-related changes in cognitive performance | remarkable extension of the lifespan | effectively delayed the onset of senescence | –
Cc1c(C)c2c(c(C)c1O)CC[C@@](C)(CCC[C@H](C)CCC[C@H](C)CCCC(C)C)O2 [vitamin E, alpha-tocopherol] | – | – | – | – | benefit (i.e., improve) age-related changes in cognitive performance | – | – | 0.48
